Measured values as given in PubChem BioAssay AID1745844 (Carcinogenic Potency Database (CPDB), 2022).

Tested on: rodent lifetime carcinogenesis bioassay, tumor incidence TD50
Assay: carcinogenic potency in animals, long-term in vivo studies, CPDB compilation (AID 1745844)
Settings: inhaled

## C=CC=C
mouse, strain B6C3F1, males, site: liver, lesion: hepatocellular adenoma + hepatocellular carcinoma + neoplastic nodule, dosed 60 weeks, study length 60 weeks
  TD50: 541 mg/kg/day
mouse, strain B6C3F1, males, site: liver, lesion: hepatocellular adenoma + hepatocellular carcinoma + neoplastic nodule, dosed 82 weeks, study length 104 weeks
  TD50: 23.9 mg/kg/day
mouse, strain B6C3F1, males, site: liver, lesion: hepatocellular adenoma + hepatocellular carcinoma, dosed 13 weeks, study length 104 weeks
  TD50: 15.1 mg/kg/day
mouse, strain B6C3F1, males, site: liver, lesion: hepatocellular adenoma + hepatocellular carcinoma, dosed 26 weeks, study length 104 weeks
  TD50: 23.8 mg/kg/day
mouse, strain B6C3F1, males, site: liver, lesion: hepatocellular adenoma + hepatocellular carcinoma, dosed 40 weeks, study length 104 weeks
  TD50: 16.8 mg/kg/day
mouse, strain B6C3F1, males, site: liver, lesion: hepatocellular adenoma + hepatocellular carcinoma, dosed 52 weeks, study length 104 weeks
  TD50: 14.6 mg/kg/day
mouse, strain B6C3F1, males, site: liver, lesion: hepatocellular adenoma + hepatocellular carcinoma, dosed 82 weeks, study length 104 weeks
  TD50: 23.9 mg/kg/day
mouse, strain B6C3F1, males, site: liver, lesion: hepatocellular adenoma, dosed 13 weeks, study length 104 weeks
  TD50: 17.9 mg/kg/day
mouse, strain B6C3F1, males, site: liver, lesion: hepatocellular adenoma, dosed 26 weeks, study length 104 weeks
  TD50: 27.8 mg/kg/day
mouse, strain B6C3F1, males, site: liver, lesion: hepatocellular adenoma, dosed 40 weeks, study length 104 weeks
  TD50: 18 mg/kg/day
mouse, strain B6C3F1, males, site: liver, lesion: hepatocellular adenoma, dosed 52 weeks, study length 104 weeks
  TD50: 15.8 mg/kg/day
mouse, strain B6C3F1, males, site: liver, lesion: hepatocellular adenoma, dosed 82 weeks, study length 104 weeks
  TD50: 34.1 mg/kg/day
mouse, strain B6C3F1, males, site: liver, lesion: hepatocellular carcinoma, dosed 13 weeks, study length 104 weeks
  TD50: 23.4 mg/kg/day
mouse, strain B6C3F1, males, site: liver, lesion: hepatocellular carcinoma, dosed 26 weeks, study length 104 weeks
  TD50: 60 mg/kg/day
mouse, strain B6C3F1, males, site: liver, lesion: hepatocellular carcinoma, dosed 40 weeks, study length 104 weeks
  TD50: 62 mg/kg/day
mouse, strain B6C3F1, males, site: liver, lesion: hepatocellular carcinoma, dosed 52 weeks, study length 104 weeks
  TD50: 47 mg/kg/day
mouse, strain B6C3F1, males, site: liver, lesion: hepatocellular carcinoma, dosed 82 weeks, study length 104 weeks
  TD50: 34.4 mg/kg/day
mouse, strain B6C3F1, males, site: lung, lesion: alveolar/bronchiolar adenoma + alveolar/bronchiolar carcinoma + adenocarcinoma, dosed 13 weeks, study length 104 weeks
  TD50: 8.59 mg/kg/day
mouse, strain B6C3F1, males, site: lung, lesion: alveolar/bronchiolar adenoma + alveolar/bronchiolar carcinoma + adenocarcinoma, dosed 52 weeks, study length 104 weeks
  TD50: 7.17 mg/kg/day
mouse, strain B6C3F1, males, site: lung, lesion: alveolar/bronchiolar adenoma + alveolar/bronchiolar carcinoma + adenocarcinoma, dosed 82 weeks, study length 104 weeks
  TD50: 19.2 mg/kg/day
mouse, strain B6C3F1, males, site: lung, lesion: alveolar/bronchiolar adenoma + alveolar/bronchiolar carcinoma, dosed 13 weeks, study length 104 weeks
  TD50: 8.59 mg/kg/day
mouse, strain B6C3F1, males, site: lung, lesion: alveolar/bronchiolar adenoma + alveolar/bronchiolar carcinoma, dosed 26 weeks, study length 104 weeks
  TD50: 13.4 mg/kg/day
mouse, strain B6C3F1, males, site: lung, lesion: alveolar/bronchiolar adenoma + alveolar/bronchiolar carcinoma, dosed 40 weeks, study length 104 weeks
  TD50: 11 mg/kg/day
mouse, strain B6C3F1, males, site: lung, lesion: alveolar/bronchiolar adenoma + alveolar/bronchiolar carcinoma, dosed 52 weeks, study length 104 weeks
  TD50: 7.25 mg/kg/day
mouse, strain B6C3F1, males, site: lung, lesion: alveolar/bronchiolar adenoma + alveolar/bronchiolar carcinoma, dosed 60 weeks, study length 60 weeks
  TD50: 65.9 mg/kg/day
mouse, strain B6C3F1, males, site: lung, lesion: alveolar/bronchiolar adenoma + alveolar/bronchiolar carcinoma, dosed 82 weeks, study length 104 weeks
  TD50: 19.6 mg/kg/day
mouse, strain B6C3F1, males, site: lung, lesion: alveolar/bronchiolar adenoma, dosed 13 weeks, study length 104 weeks
  TD50: 17.1 mg/kg/day
mouse, strain B6C3F1, males, site: lung, lesion: alveolar/bronchiolar adenoma, dosed 26 weeks, study length 104 weeks
  TD50: 17.3 mg/kg/day
mouse, strain B6C3F1, males, site: lung, lesion: alveolar/bronchiolar adenoma, dosed 40 weeks, study length 104 weeks
  TD50: 18.1 mg/kg/day
mouse, strain B6C3F1, males, site: lung, lesion: alveolar/bronchiolar adenoma, dosed 52 weeks, study length 104 weeks
  TD50: 9.13 mg/kg/day
mouse, strain B6C3F1, males, site: lung, lesion: alveolar/bronchiolar adenoma, dosed 60 weeks, study length 60 weeks
  TD50: 96.9 mg/kg/day
mouse, strain B6C3F1, males, site: lung, lesion: alveolar/bronchiolar adenoma, dosed 82 weeks, study length 104 weeks
  TD50: 33.2 mg/kg/day
mouse, strain B6C3F1, males, site: lung, lesion: alveolar/bronchiolar carcinoma + adenocarcinoma, dosed 13 weeks, study length 104 weeks
  TD50: 14.1 mg/kg/day
mouse, strain B6C3F1, males, site: lung, lesion: alveolar/bronchiolar carcinoma + adenocarcinoma, dosed 52 weeks, study length 104 weeks
  TD50: 13 mg/kg/day
mouse, strain B6C3F1, males, site: lung, lesion: alveolar/bronchiolar carcinoma + adenocarcinoma, dosed 82 weeks, study length 104 weeks
  TD50: 32.4 mg/kg/day
mouse, strain B6C3F1, males, site: lung, lesion: alveolar/bronchiolar carcinoma, dosed 26 weeks, study length 104 weeks
  TD50: 17.8 mg/kg/day
mouse, strain B6C3F1, males, site: lung, lesion: alveolar/bronchiolar carcinoma, dosed 40 weeks, study length 104 weeks
  TD50: 16.3 mg/kg/day
mouse, strain B6C3F1, males, site: lung, lesion: alveolar/bronchiolar carcinoma, dosed 60 weeks, study length 60 weeks
  TD50: 312 mg/kg/day
mouse, strain B6C3F1, males, site: preputial gland, lesion: adenoma + carcinoma + carcinoma, bilateral, dosed 13 weeks, study length 104 weeks
  TD50: 119 mg/kg/day
mouse, strain B6C3F1, males, site: preputial gland, lesion: adenoma + carcinoma + carcinoma, bilateral, dosed 26 weeks, study length 104 weeks
  TD50: 27.1 mg/kg/day
mouse, strain B6C3F1, males, site: preputial gland, lesion: adenoma + carcinoma + carcinoma, bilateral, dosed 40 weeks, study length 104 weeks
  TD50: 351 mg/kg/day
mouse, strain B6C3F1, males, site: preputial gland, lesion: carcinoma + carcinoma, bilateral, dosed 13 weeks, study length 104 weeks
  TD50: 167 mg/kg/day
mouse, strain B6C3F1, males, site: preputial gland, lesion: carcinoma + carcinoma, bilateral, dosed 26 weeks, study length 104 weeks
  TD50: 27.1 mg/kg/day
mouse, strain B6C3F1, males, site: preputial gland, lesion: carcinoma + carcinoma, bilateral, dosed 40 weeks, study length 104 weeks
  TD50: 351 mg/kg/day
mouse, strain B6C3F1, males, site: preputial gland, lesion: carcinoma + carcinoma, bilateral, dosed 52 weeks, study length 104 weeks
  TD50: 20.1 mg/kg/day
mouse, strain B6C3F1, males, site: preputial gland, lesion: carcinoma, NOS + squamous-cell carcinoma, dosed 60 weeks, study length 60 weeks
  TD50: 403 mg/kg/day
mouse, strain B6C3F1, males, site: preputial gland, lesion: carcinoma, dosed 82 weeks, study length 104 weeks
  TD50: 384 mg/kg/day
mouse, strain B6C3F1, males, site: preputial gland, lesion: squamous-cell carcinoma, dosed 60 weeks, study length 60 weeks
  TD50: 538 mg/kg/day
mouse, strain B6C3F1, males, site: subcutaneous tissue, lesion: hemangiosarcoma, dosed 82 weeks, study length 104 weeks
  TD50: 666 mg/kg/day
rat, strain Charles River CD (Sprague-Dawley), females, site: mammary gland, lesion: benign tumor, dosed 105 weeks, study length 105 weeks
  TD50: 182 mg/kg/day
rat, strain Charles River CD (Sprague-Dawley), females, site: mammary gland, lesion: malignant tumor, dosed 105 weeks, study length 105 weeks
  TD50: 7720 mg/kg/day
rat, strain Charles River CD (Sprague-Dawley), females, site: mammary gland, lesion: several types, types named in the paper, dosed 105 weeks, study length 105 weeks
  TD50: 133 mg/kg/day
rat, strain Charles River CD (Sprague-Dawley), females, site: thyroid gland, lesion: follicular-cell adenoma, dosed 105 weeks, study length 105 weeks
  TD50: 8270 mg/kg/day
rat, strain Charles River CD (Sprague-Dawley), males, site: any site (literature study), lesion: one or several types, types not named, dosed 111 weeks, study length 111 weeks
  TD50: 1470 mg/kg/day
rat, strain Charles River CD (Sprague-Dawley), males, site: pancreas, lesion: exocrine adenoma, dosed 111 weeks, study length 111 weeks
  TD50: 9310 mg/kg/day
rat, strain Charles River CD (Sprague-Dawley), males, site: testis, lesion: Leydig-cell tumor, dosed 111 weeks, study length 111 weeks
  TD50: 7550 mg/kg/day
